Reference: ChEMBL document CHEMBL1150413, “A series of potent and selective, triazolylphenyl-based histone deacetylases inhibitors with activity against pancreatic cancer cells and Plasmodium falciparum” (J Med Chem, 2008)

What was measured:
[1] = target: Histone deacetylase 1 (Homo sapiens, UniProt Q13547)
[2] = target: T1, Histone deacetylase 8 (Homo sapiens, UniProt Q9BY41)
T1 sequence (Q9BY41 whole entry): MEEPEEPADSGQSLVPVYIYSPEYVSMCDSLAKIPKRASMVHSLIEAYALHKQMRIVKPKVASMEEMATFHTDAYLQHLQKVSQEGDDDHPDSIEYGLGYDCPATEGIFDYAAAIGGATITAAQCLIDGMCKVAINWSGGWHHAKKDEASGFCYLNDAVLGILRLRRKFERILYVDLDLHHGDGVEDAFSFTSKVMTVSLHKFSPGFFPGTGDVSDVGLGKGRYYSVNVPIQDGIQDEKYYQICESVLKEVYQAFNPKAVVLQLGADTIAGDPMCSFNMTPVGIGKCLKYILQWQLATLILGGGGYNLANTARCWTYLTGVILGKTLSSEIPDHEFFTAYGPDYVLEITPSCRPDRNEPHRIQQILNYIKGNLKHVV

[3] = Cytotoxicity against human Hup T3 cells after 72 hrs by MTT assay; type: functional, cell-based; details: HuP-T3, 72 h
[4] = target: Histone deacetylase 3 (Homo sapiens, UniProt O15379)
[5] = Cytotoxicity against human SU 86.86 cells after 72 hrs by MTT assay; type: functional, cell-based; details: SU.86.86, 72 h
[6] = target: Histone deacetylase 2 (Homo sapiens, UniProt Q92769)
[7] = Cytotoxicity against human Panc 04.03 cells after 72 hrs by MTT assay; type: functional, cell-based; details: Panc 04.03, 72 h
[8] = Selectivity for HDAC10 over HDAC1
[9] = target: T2, Polyamine deacetylase HDAC10 (Homo sapiens, UniProt Q969S8)
T2 sequence (Q969S8 whole entry): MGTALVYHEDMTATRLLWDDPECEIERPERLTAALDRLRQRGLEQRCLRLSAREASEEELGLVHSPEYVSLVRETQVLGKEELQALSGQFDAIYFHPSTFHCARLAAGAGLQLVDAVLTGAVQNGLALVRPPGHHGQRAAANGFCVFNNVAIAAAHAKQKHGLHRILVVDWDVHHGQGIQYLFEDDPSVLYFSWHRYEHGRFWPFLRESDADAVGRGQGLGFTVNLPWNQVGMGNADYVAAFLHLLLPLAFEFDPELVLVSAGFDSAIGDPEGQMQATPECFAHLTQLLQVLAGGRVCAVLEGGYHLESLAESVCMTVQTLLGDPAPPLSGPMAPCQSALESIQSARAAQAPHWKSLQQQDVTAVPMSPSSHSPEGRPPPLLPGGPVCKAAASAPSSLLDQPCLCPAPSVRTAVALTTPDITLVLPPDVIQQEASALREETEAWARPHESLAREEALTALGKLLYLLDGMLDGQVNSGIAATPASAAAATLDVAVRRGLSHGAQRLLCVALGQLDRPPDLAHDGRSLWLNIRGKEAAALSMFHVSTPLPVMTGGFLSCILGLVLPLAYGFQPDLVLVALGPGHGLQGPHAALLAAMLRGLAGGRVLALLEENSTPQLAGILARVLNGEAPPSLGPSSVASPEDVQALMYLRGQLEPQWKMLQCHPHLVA

[10] = target: T3, Protein deacetylase HDAC6 (Homo sapiens, UniProt Q9UBN7)
T3 sequence (Q9UBN7 whole entry): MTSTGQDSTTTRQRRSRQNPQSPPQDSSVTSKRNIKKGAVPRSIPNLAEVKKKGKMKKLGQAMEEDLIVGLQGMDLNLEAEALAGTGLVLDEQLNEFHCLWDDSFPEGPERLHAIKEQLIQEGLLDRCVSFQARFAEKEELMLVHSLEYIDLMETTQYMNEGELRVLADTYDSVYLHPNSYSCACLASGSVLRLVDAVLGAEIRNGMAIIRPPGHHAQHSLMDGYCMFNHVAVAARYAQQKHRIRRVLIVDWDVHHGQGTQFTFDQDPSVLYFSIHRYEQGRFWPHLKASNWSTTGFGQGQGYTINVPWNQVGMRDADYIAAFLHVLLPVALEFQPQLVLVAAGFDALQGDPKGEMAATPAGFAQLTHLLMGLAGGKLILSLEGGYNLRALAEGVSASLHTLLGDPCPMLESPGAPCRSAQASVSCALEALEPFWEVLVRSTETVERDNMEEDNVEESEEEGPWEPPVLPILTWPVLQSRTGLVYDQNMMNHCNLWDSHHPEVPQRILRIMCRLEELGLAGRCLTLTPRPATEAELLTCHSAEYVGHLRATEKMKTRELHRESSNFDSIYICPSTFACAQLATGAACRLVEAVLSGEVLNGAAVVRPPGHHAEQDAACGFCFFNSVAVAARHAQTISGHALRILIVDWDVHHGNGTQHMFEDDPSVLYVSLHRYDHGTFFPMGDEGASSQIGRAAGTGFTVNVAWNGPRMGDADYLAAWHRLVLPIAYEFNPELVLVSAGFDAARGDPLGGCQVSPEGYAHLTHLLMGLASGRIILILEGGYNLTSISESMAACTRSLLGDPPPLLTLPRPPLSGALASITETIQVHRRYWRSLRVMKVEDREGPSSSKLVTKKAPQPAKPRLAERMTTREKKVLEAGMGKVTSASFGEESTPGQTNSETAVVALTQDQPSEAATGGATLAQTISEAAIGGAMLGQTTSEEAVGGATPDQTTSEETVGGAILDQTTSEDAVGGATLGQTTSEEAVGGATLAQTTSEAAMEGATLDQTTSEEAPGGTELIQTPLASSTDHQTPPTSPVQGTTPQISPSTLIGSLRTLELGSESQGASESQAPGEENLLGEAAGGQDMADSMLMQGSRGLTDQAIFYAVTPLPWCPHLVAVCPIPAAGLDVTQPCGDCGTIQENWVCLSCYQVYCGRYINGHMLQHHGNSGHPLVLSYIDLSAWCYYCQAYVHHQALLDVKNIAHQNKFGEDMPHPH

[11] = Cytotoxicity against human HPDE6c7 cells; type: ADME, cell-based
[12] = Cytotoxicity against nontransformed human microvascular epithelial cells; type: ADME, cell-based; details: Endothelial cell
[13] = test system: BXPC-3; assay: Cytotoxicity against human BxPC3 cells after 72 hrs by MTT assay; type: functional, cell-based; details: BXPC-3, 72 h
[14] = test system: MIA PaCa-2; assay: Cytotoxicity against human Mia Paca2 cells after 72 hrs by MTT assay; type: functional, cell-based; details: MIA PaCa-2, 72 h
[15] = test system: Plasmodium falciparum; assay: Antimalarial activity against Plasmodium falciparum D6 by hypoxanthine uptake; type: functional, organism-based
[16] = test system: Plasmodium falciparum; assay: microbe, parasite or virus in culture; details: TM91C235
Description: Antimalarial activity against Plasmodium falciparum TM91C235 by hypoxanthine uptake

[17] = test system: Plasmodium falciparum; assay: Antimalarial activity against Plasmodium falciparum TM90C2A by hypoxanthine uptake; type: functional, organism-based
[18] = test system: Plasmodium falciparum; assay: Antimalarial activity against Plasmodium falciparum W2 by hypoxanthine uptake; type: functional, organism-based

Histone deacetylase 3, sequence (O15379 whole entry): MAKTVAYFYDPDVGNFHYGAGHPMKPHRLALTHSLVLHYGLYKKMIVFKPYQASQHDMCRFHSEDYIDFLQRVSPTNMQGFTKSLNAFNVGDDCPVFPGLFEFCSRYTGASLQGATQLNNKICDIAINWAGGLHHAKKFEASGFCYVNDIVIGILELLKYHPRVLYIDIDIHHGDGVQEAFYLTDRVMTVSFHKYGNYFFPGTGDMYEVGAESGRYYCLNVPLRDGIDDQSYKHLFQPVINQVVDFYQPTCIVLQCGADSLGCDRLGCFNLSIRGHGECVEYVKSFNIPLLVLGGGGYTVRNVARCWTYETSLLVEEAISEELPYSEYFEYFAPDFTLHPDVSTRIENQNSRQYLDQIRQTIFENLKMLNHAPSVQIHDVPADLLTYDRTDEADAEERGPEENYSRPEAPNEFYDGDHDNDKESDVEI
Histone deacetylase 1, sequence (Q13547 whole entry): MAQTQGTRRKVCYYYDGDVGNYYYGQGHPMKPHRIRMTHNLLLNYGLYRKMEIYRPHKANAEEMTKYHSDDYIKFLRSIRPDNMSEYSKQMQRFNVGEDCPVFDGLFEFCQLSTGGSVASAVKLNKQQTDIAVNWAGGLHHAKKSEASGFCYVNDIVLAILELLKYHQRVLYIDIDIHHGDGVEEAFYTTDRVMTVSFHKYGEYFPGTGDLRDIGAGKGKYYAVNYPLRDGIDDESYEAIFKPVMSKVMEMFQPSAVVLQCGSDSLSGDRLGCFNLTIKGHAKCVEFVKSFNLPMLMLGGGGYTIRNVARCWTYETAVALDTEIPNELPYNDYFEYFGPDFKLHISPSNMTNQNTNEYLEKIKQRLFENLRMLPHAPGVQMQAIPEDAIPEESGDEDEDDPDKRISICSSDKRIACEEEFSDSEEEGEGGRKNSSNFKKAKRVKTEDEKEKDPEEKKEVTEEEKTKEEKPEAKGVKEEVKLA
Histone deacetylase 2, sequence (Q92769 whole entry): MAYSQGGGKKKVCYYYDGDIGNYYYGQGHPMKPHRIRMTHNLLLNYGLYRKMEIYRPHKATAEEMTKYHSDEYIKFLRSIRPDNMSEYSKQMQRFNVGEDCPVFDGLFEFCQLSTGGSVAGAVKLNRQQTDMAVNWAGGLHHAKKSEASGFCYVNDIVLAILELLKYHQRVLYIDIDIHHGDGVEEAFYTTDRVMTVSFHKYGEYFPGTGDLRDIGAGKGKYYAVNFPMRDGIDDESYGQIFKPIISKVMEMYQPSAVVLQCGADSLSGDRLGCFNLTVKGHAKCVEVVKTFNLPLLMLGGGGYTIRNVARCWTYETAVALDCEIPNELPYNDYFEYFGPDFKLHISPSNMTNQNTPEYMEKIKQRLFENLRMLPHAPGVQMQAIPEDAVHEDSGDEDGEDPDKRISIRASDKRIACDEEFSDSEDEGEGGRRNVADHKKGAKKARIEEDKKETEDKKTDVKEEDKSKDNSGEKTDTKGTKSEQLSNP

SMILES	IC50 [1]	IC50 [2]	IC50 [3]	IC50 [4]	IC50 [5]	IC50 [6]	IC50 [7]	Ratio IC50 [8]	IC50 [9]	IC50 [10]	IC50 [11]	IC50 [12]	IC50 [13]	IC50 [14]	IC50 [15]	IC50 [16]	IC50 [17]	IC50 [18]
O=C(CCCCCCC(=O)Nc1ccc(-c2cn(-c3ccccc3)nn2)cc1)NO	27.1 nM	1970 nM	1000 nM	8 nM	1000 nM	47.5 nM	1000 nM	0.8	36.1 nM	1.3 nM	1000 nM	1000 nM	3000 nM	400 nM				
O=C(CCCCCCC(=O)Nc1cccc(-c2cn(Cc3ccc(F)cc3)nn2)c1)NO	17.6 nM	552 nM	1000 nM	4 nM	1000 nM	77.4 nM	1000 nM	0.5	34.3 nM	2.6 nM	500 nM	< 1000 nM	1000 nM	300 nM	180 nM	280 nM	110 nM	350 nM
O=C(CCCCCCC(=O)Nc1cccc(-c2cn(-c3ccccc3)nn2)c1)NO	18 nM	2780 nM				63.9 nM	< 500 nM		27.7 nM	9.6 nM	< 200 nM	< 1000 nM			17 nM	35 nM	17 nM	32 nM
O=C(CCCCCCC(=O)Nc1ccc(-c2cnnn2CC(O)c2cccc(Br)c2)cc1)NO (stereo not given)	69.9 nM	737 nM	46000 nM	15.1 nM	42000 nM	216 nM	44000 nM	0.9	74.8 nM	4.2 nM			25000 nM	37000 nM	230 nM	390 nM	230 nM	> 950 nM
